Laboratory results taken from patent US20070172469A1, “Methods For Inhibiting Viral Replication In Vivo” (priority 2002, published 2007).
Read-outs that look alike come from different tables or passages of the source.

Experiments:
HCV [1] = assay: In vitro HCV RNA replication assay in AVA5 cells (dot blot); type: cell-based, Hepatitis C virus (HCV); settings: for IC50 / IC90: HCV mRNA levels
[2] = Toxicity in AVA5 cells, neutral red dye uptake; settings: human, AVA5 cells (HCV RNA replicating cell line derived from Huh7)
AVA5 cells = assay: Actin mRNA level in AVA5 cells (nonspecific inhibitory activity); type: cell-based, human; settings: 3 days, ADI-PEG20 0.01 IU/ml, alpha interferon 10 IU/ml, ribavirin 100 μM
[3] = cited from earlier work
HCV [4] = settings: cited from earlier work
[5] = humans chronically infected with HCV

What does the source list for `NC(=O)c1ncn([C@@H]2O[C@H](CO)[C@@H](O)[C@H]2O)n1` [ribavirin, 1-β-D-ribo-furanosyl-1,2,4-trizole-3-carboxamide]?
IC50 (HCV [1]; Hepatitis C virus, 72 h, AVA5 cells, 3 days, read-out: IC50): > 10 µM; IC90 (HCV [1]; Hepatitis C virus, 72 h, AVA5 cells, 3 days, read-out: IC90): > 10 µM; inhibition at 100 µM (HCV [1]; Hepatitis C virus, Ava5, 72 h): 25%; CC50 at 3 days [2]: 74 µM; mRNA % inhibition of actin (AVA5 cells): 98%

What does the source list for alpha interferon?
% inhibition of HCV (HCV [1]; AVA5 cells, 3 days, ADI-PEG20 0.01 IU/ml, alpha interferon 10 IU/ml, ribavirin 100 μM): 92%; IC50 (HCV [1]; AVA5 cells, 3 days): 2.1 IU/ml; IC90 (HCV [1]; AVA5 cells, 3 days): 9.0 IU/ml; SI (HCV [1]; selectivity index CC50/EC50, AVA5 cells): >4762; mRNA % inhibition of actin (AVA5 cells): 11%; patients with influenza-like illness with fever, chills, myalgias and malaise ([3]; PEG and non PEG formulated versions): up to 82%; patients with neuropsychiatric complications ([3]; depression, irritability, anxiety): ~20%; alopecia ([3]; human, in vivo): ~5%; bone marrow suppression with granulocytopenia, anemia or thrombocytopenia ([3]; human, in vivo): ~5%; patients in whom effective (HCV [4]; [5]): ~50%; treatment required to achieve a 50% reduction in HCV titers (HCV [4]; [5]): 3-6 months; patients who initially responded to the therapy (HCV [4]; various clinical trials): approximately 40%; responders who relapsed after the treatment ended (HCV [4]; various clinical trials): 70%
